Assay results published in the NIST ThermoML archive (doi:10.1021/je0341256).
Where “and” joins values, the source holds several entries; their conditions need not be identical. Equal entries are not always repeated. Numbers after ± are expanded uncertainties.

Settings: Liquid, Closed cell (Static) method

vapor or sublimation pressure (332.06 K) [kPa] | vapor or sublimation pressure (332.08 K) | SMILES | other results
44.67 ± 0.43 |  | CCO [ethanol] | 
 | 80.97 ± 0.48 kPa | CO [methanol] | 

More lines, now with the values behind:

SMILES | vapor or sublimation pressure (332.06 K) [kPa] | vapor or sublimation pressure (332.08 K) | other results
CC(C)(C)O [2-methylpropan-2-ol] | 36.97 ± 0.42 |  | 
C/C=C/C [(E)-2-butene] | 605.74 ± 2.1 | 606.44 ± 2.1 kPa and 606.14 ± 2.1 kPa | vapor or sublimation pressure (332.04 K): 605.54 ± 2.1 kPa; vapor or sublimation pressure (332.07 K): 606.94 ± 2.1 kPa
CCC(C)O (centres undefined) [butan-2-ol] |  | 17.27 ± 0.4 kPa | 
CC(C)O [propan-2-ol] |  |  | vapor or sublimation pressure (332.03 K): 36.47 ± 0.42 kPa
